In brackets after ≈: the same amount, converted by molar mass. Activity calls are given as the source filed them. The rule behind the calls is not given here.
Columns and labels:
[1] = test system: HepG2; assay: Cytotoxicity against human HepG2 cells; type: functional, cell-based
[2] = test system: A549; assay: Cytotoxicity against human A549 cells; type: functional, cell-based
[3] = test system: HCT-116; assay: Cytotoxicity against human HCT-116 cells; type: functional, cell-based
[4] = test system: HeLa; assay: Cytotoxicity against human HeLa cells; type: functional, cell-based
[5] = test system: MCF7; assay: Cytotoxicity against human MCF7 cells; type: functional, cell-based
[6] = test system: Staphylococcus aureus; assay: Antibacterial activity against Staphylococcus aureus by broth microdilution method; type: functional
[7] = test system: Escherichia coli; assay: Antibacterial activity against Escherichia coli by broth microdilution method; type: functional
[8] = test system: Pseudomonas aeruginosa; assay: Antibacterial activity against Pseudomonas aeruginosa by broth microdilution method; type: functional
[9] = species: Danio rerio; assay: Induction of pro-angiogenic activity in transgenic Tg (flk1:EGFP) zebrafish model assessed as growth of intersegmental vessel at 10 uM for 24 hrs by olympus fluorescence microscopy analysis; type: functional, organism-based
[10] = species: Danio rerio; assay: Induction of pro-angiogenic activity in transgenic Tg (flk1:EGFP) zebrafish model assessed as growth of intersegmental vessel at 20 uM for 24 hrs by olympus fluorescence microscopy analysis; type: functional, organism-based
[11] = species: Danio rerio; assay: Induction of pro-angiogenic activity in transgenic Tg (flk1:EGFP) zebrafish model assessed as growth of intersegmental vessel at 40 uM for 24 hrs by olympus fluorescence microscopy analysis; type: functional, organism-based

Compound | MIC [6] [µg/mL] | MIC [7] [µg/mL] | MIC [8] [µg/mL] | Activity [1] | Activity [2] | Activity [3] | Activity [4] | Activity [5] | Activity [9] | Activity [10] | Activity [11]
COc1c(O)cc2c(c1O)C(=O)O[C@H](C)[C@@H]2OC | 64 (≈ 252 µM) | 16 (≈ 62.9 µM) | 64 (≈ 252 µM) | inactive | inactive | inactive | inactive | inactive |  |  | 
COc1c(O)cc2c(c1O)C(=O)O[C@H](C)[C@@H]2Oc1c(Cl)c2c(c(O)c1OC)C(=O)O[C@H](C)[C@@H]2O | 64 (≈ 129 µM) | 8 (≈ 16.1 µM) | 64 (≈ 129 µM) | inactive | inactive | inactive | inactive | inactive |  |  | 
COc1c(O)c(Cl)c2c(c1O)C(=O)O[C@H](C)[C@H]2O | 64 (≈ 233 µM) | 32 (≈ 117 µM) | 32 (≈ 117 µM) | inactive | inactive | inactive | inactive | inactive |  |  | 
COc1c(O)cc2c(c1O)C(=O)O[C@H](C)[C@@H]2Oc1cc2c(c(O)c1OC)C(=O)O[C@H](C)C2 | 64 (≈ 143 µM) | 1 (≈ 2.24 µM) | 32 (≈ 71.7 µM) | inactive | inactive | inactive | inactive | inactive |  |  | 
COc1c(O)c(Cl)c2c(c1O)C(=O)O[C@H](C)[C@@H]2O | 64 (≈ 233 µM) | 64 (≈ 233 µM) | 64 (≈ 233 µM) | inactive | inactive | inactive | inactive | inactive |  |  | 
COc1c(O)cc2c(c1O)C(=O)O[C@H](C)[C@H]2OC | 64 (≈ 252 µM) | 16 (≈ 62.9 µM) | 64 (≈ 252 µM) | inactive | inactive | inactive | inactive | inactive |  |  | 
COc1c(O)cc2c(c1O)C(=O)O[C@H](C)[C@@H]2Oc1c(Cl)c2c(c(O)c1OC)C(=O)O[C@H](C)[C@H]2O | 64 (≈ 129 µM) | 32 (≈ 64.4 µM) | 32 (≈ 64.4 µM) | inactive | inactive | inactive | inactive | inactive | Active | Active | Active
O=C(O)c1cn(C2CC2)c2cc(N3CCNCC3)c(F)cc2c1=O [CIPROFLOXACIN] | 0.5 (≈ 1.51 µM) |  | 4 (≈ 12.1 µM) |  |  |  |  |  |  |  | 
C[C@H]1OC(=O)c2c(O)cc(O)cc2[C@H]1Cl | 64 (≈ 280 µM) | 32 (≈ 140 µM) | 64 (≈ 280 µM) | inactive | inactive | inactive | inactive | inactive |  |  | 
COc1c(O)cc2c(c1O)C(=O)O[C@H](C)[C@@H]2O | 64 (≈ 266 µM) | 8 (≈ 33.3 µM) | 64 (≈ 266 µM) | inactive | inactive | inactive | inactive | inactive |  |  | 
C[C@@H]1Cc2cc(O)c(O)c(O)c2C(=O)O1 | 64 (≈ 304 µM) | 64 (≈ 304 µM) | 32 (≈ 152 µM) | inactive | inactive | inactive | inactive | inactive |  |  | 
CCO[C@H]1c2cc(O)c(OC)c(O)c2C(=O)O[C@@H]1C |  |  |  | inactive | inactive | inactive | inactive | inactive |  |  | 

Second part, led by results:

MIC [6] [µg/mL] | MIC [7] [µg/mL] | MIC [8] [µg/mL] | Compound | Activity [1] | Activity [2] | Activity [3] | Activity [4] | Activity [5] | Activity [9] | Activity [10] | Activity [11]
64 (≈ 129 µM) | 32 (≈ 64.4 µM) | 64 (≈ 129 µM) | COc1c(O)cc2c(c1O)C(=O)O[C@H](C)[C@H]2Oc1c(Cl)c2c(c(O)c1OC)C(=O)O[C@H](C)[C@H]2O | inactive | inactive | inactive | inactive | inactive | Active | Active | Active
64 (≈ 133 µM) | 64 (≈ 133 µM) | 32 (≈ 66.5 µM) | COc1c(O)cc2c(c1O)C(=O)O[C@H](C)[C@@H]2Oc1c(Cl)c2c(c(O)c1OC)C(=O)O[C@H](C)C2 | inactive | inactive | inactive | inactive | inactive |  |  | 
64 (≈ 129 µM) | 4 (≈ 8.05 µM) | 64 (≈ 129 µM) | COc1c(O)cc2c(c1O)C(=O)O[C@H](C)[C@H]2Oc1c(Cl)c2c(c(O)c1OC)C(=O)O[C@H](C)[C@@H]2O | inactive | inactive | inactive | inactive | inactive |  |  | 
64 (≈ 133 µM) | 32 (≈ 66.5 µM) | 32 (≈ 66.5 µM) | COc1c(O)cc2c(c1O)C(=O)O[C@H](C)[C@H]2Oc1c(Cl)c2c(c(O)c1OC)C(=O)O[C@H](C)C2 | inactive | inactive | inactive | inactive | inactive |  |  | 
4 (≈ 18 µM) | 16 (≈ 72 µM) | 32 (≈ 144 µM) | COc1c(O)cc2cc(C)oc(=O)c2c1O | inactive | inactive | inactive | inactive | inactive |  |  | 
32 (≈ 101 µM) | 32 (≈ 101 µM) | > 64 | COc1c(O)c(Cl)c2c(c1O)C(=O)O[C@H](C)[C@H]2OC(C)=O | inactive | inactive | inactive | inactive | inactive | Active | Active | Active
2 (≈ 4.48 µM) | 1 (≈ 2.24 µM) | 32 (≈ 71.7 µM) | COc1c(O)cc2c(c1O)C(=O)O[C@H](C)[C@H]2Oc1cc2c(c(O)c1OC)C(=O)O[C@H](C)C2 | inactive | inactive | inactive | inactive | inactive |  |  | 
32 (≈ 124 µM) | 2 (≈ 7.73 µM) | 32 (≈ 124 µM) | COc1c(O)c(Cl)c2c(c1O)C(=O)O[C@H](C)C2 | inactive | inactive | inactive | inactive | inactive |  |  | 
16 (≈ 34.6 µM) | 64 (≈ 138 µM) | 16 (≈ 34.6 µM) | COc1c(O)cc2c(c1O)C(=O)O[C@H](C)[C@H]2Oc1cc2c(c(O)c1OC)C(=O)O[C@H](C)[C@@H]2O | inactive | inactive | inactive | inactive | inactive |  |  | 

From ChEMBL document CHEMBL6153145, “Isocoumarins from Spegazzinia sp. MDCW-573 with Antibacterial and Proangiogenic Activities” (2025)
